Measured values as given in article PMC7408547, “Bivalent Inhibitor with Selectivity for Trimeric MMP-9 Amplifies Neutrophil Chemotaxis and Enables Functional Studies on MMP-9 Proteoforms” (Cells, 2020).

Tests used:
[1] = biological target: T1, recombinant human MMP-9 mixture (± 70% monomers and ± 30% trimers) (Homo sapiens, UniProt P14780); test: Gelatin degradation assay, recombinant MMP-9 mixture; assay type: biochemical; conditions: recombinant human MMP-9 (Sf9) mix, best-fit value
T1 construct: made in house; host or cells: Sf9 insect cells
Method: (§1) Compounds 5 and 7 were synthesized as previously reported. Full-length human proMMP-9 was produced by recombinant expression in Sf9 insect cells and purified by gelatin-Sepharose chromatography as previously described. Stable full-length proMMP-9 monomers and trimers were separated by glycerol gradient ultracentrifugation as previously described. ProMMP-9 mixture and the separated monomers and trimers were activated by incubation with the catalytic domain of MMP-3 (cat. No. 444217, Merck Millipore, Darmstadt, Germany) as previously described. Activation of proMMP-9 was confirmed by a band shift of ±10 kDa, corresponding to the removal of the auto-inhibitory propeptide domain and by detection of gelatinolytic activity with a previously described gelatin degradation assay. MMP-9 monomers and trimers purified from human neutrophils were purchased (Cat. No. 444,231 and 444232, Sigma-Aldrich, St. Louis, MO, USA). Examples of sample purities and activations can be found in Supplementary Figure S1. Recombinant human proMMP-2 (CHO cell-derived), proMMP-3 (NS0 cell-derived), proMMP-7 (NS0 cell-derived) and proMMP-8 (NS0 cell-derived) were purchased from R & D systems (Minneapolis, MN, USA), dissolved in assay buffer (150 mM NaCl, 5 mM CaCl2, 0.01% Tween-20, 50 mM Tris, pH 7.4) to a concentration of 100 µg/mL and activated by incubation with 1 mM p-aminophenylmercuric acetate for, respectively, 1h, 6h, 2h and 1h. Activation of MMPs was confirmed by a band shift of approximately 10 kDa, corresponding to the removal of the propeptide domain. MMP-14/MT1-MMP (NS0 cell-derived) was also purchased from R & D systems (Minneapolis, MN, USA) and activated by incubation with recombinant human furin (cat. No. 1503-SE-010, R & D systems, Minneapolis, MO, USA) in activation buffer (50 mM Tris, 1 mM CaCl2, 0.5% Brij-35, pH 9) for 1.5 h and activity was tested in assay buffer (50 mM Tris, 3 mM CaCl2, 1 µM ZnCl2, pH 8.5). Active human neutrophil elastase (NE) was purchased from Abcam (Cambridge, UK) and for activity assays of NE the assay buffer was replaced by 200 mM Tris, pH 8.8. ADAM17/TACE (Sf 21 (baculovirus)-derived, R & D systems, Minneapolis, MO, USA) was diluted and evaluated in 25 mM Tris, 2.5 μM ZnCl2, 0.005% Brij-35, pH 9.0. All stocks of the compounds were evaluated for the presence of endotoxin using the EndoZyme II assay (Hyglos bioMérieux, Bernried am Starnberger See, Germany). Endotoxin levels in all concentrated stocks (2.5 mg/mL) were below the accepted limit of 0.5 EU/mL.
(§2) To determine the inhibition of gelatinolytic activity, we used a previously optimized gelatin degradation assay. Activated MMP-9, activated MMP-2, neutrophil elastase or supernatants of stimulated neutrophils, were incubated with different concentrations of inhibitors and incubated for 30 min at 37 °C. Next, dye-quenched gelatin (DQ™-gelatin, Invitrogen, Carlsbad, CA, USA) was added at a final concentration of 2.5 µg/mL and the increase in fluorescence over time was measured with the CLARIOstar microplate reader (BMG Labtech, Ortenberg, Germany). For other MMPs, the OmniMMP substrate peptide (Mca-PLGL-Dpa-AR-NH2, cat. no. BML-P126-0001, Enzo Life Sciences, Farmingdale, NY, USA) was used at a final concentration of 2.5 µg/mL. For ADAM17 the fluorogenic peptide Mca-PLAQAV-Dpa-RSSSR-NH2 (ES003, R & D systems, Minneapolis, MO, USA) and for neutrophil elastase the fluorogenic substrate MeOSuc-AAPV-AMC (cat. no. 324740, Merck Millipore, Darmstadt, Germany) were used. Proteolytic activity was determined by linear regression of the fluorescence curve and the percentage inhibition was calculated through comparison with the positive control (no inhibitors). When testing supernatants from human neutrophils, the assay was performed in the presence of 20 µM neutrophil elastase inhibitor (Elastase Inhibitor IV, Calbiochem, Darmstadt, Germany).

[2] = Ex vivo stability in mouse blood (remaining MMP-9 inhibitory activity); assay type: in vitro ADME; conditions: 500 µM in freshly isolated mouse blood, 37 °C; plasma and cell lysates
Method: (§3) Toxicity of compounds 5 and 7 was evaluated in vitro on the U-87 cell line. Briefly, U-87 cells were seeded in 96-well plates (cat. No. 92096, TPP Techno Plastic Products, Trasadingen, Switzerland) at 2000 cells/well in DMEM FluoroBrite containing 10% FBS and incubated for 24 h. Cells were washed and further grown in DMEM FluoroBrite with 5% KnockOut™ Serum Replacement (Gibco, Waltham, MA, USA). Compounds 5 and 7 were added to the wells in a 1:2 dilution series starting at 20 µM and ending at 0.16 µM. To evaluate the effect of the compound on cell growth, confluence was determined every hour for 17h using the Incucyte® S3 Live-Cell Analysis System (Sartorius, Göttingen, Germany). Next, cells were stained with the LIVE/DEAD™ Viability/Cytotoxicity Kit for mammalian cells (Invitrogen, Carlsbad, CA, USA; cat. # L3224) and cell viability was evaluated. Data were normalized to the mean confluence of wells containing no inhibitors. To measure the stability of the compounds, fresh blood was collected from heathy mice by cardiac puncture with a heparin-coated needle and syringe and 30UI/mL heparin was added. Next, compound 5, compound 7 or vehicle (DMSO) was added to the blood at a final concentration of 500 µM and incubated at 37 °C. […] Background inhibition was subtracted and results were expressed as percentage inhibition.

[3] = biological target: T2, MMP-7 (Homo sapiens, UniProt P09237); test: MMP-7 OmniMMP peptide assay; assay type: biochemical; conditions: OmniMMP substrate peptide
T2 construct: purchased R & D systems; host or cells: NS0 cells
T2 sequence (P09237 95-267): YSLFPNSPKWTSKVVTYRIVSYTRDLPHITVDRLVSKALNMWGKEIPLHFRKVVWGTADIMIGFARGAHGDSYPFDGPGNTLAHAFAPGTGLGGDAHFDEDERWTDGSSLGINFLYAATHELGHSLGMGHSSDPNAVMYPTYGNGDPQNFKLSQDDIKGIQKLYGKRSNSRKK
Method: Compounds 5 and 7 were synthesized as previously reported. Full-length human proMMP-9 was produced by recombinant expression in Sf9 insect cells and purified by gelatin-Sepharose chromatography as previously described. Stable full-length proMMP-9 monomers and trimers were separated by glycerol gradient ultracentrifugation as previously described. ProMMP-9 mixture and the separated monomers and trimers were activated by incubation with the catalytic domain of MMP-3 (cat. No. 444217, Merck Millipore, Darmstadt, Germany) as previously described. […] ADAM17/TACE (Sf 21 (baculovirus)-derived, R & D systems, Minneapolis, MO, USA) was diluted and evaluated in 25 mM Tris, 2.5 μM ZnCl2, 0.005% Brij-35, pH 9.0. All stocks of the compounds were evaluated for the presence of endotoxin using the EndoZyme II assay (Hyglos bioMérieux, Bernried am Starnberger See, Germany). […]
To determine the inhibition of gelatinolytic activity, we used a previously optimized gelatin degradation assay. […] Next, dye-quenched gelatin (DQ™-gelatin, Invitrogen, Carlsbad, CA, USA) was added at a final concentration of 2.5 µg/mL and the increase in fluorescence over time was measured with the CLARIOstar microplate reader (BMG Labtech, Ortenberg, Germany). […]

[4] = test system: U-87 cell line; test: U-87 cell proliferation (confluence, Incucyte); assay type: cell-based; conditions: up to a concentration of 20 µM; 17 h
Method: as §3

[5] = biological target: T3, human neutrophil-derived MMP-9 trimers (Homo sapiens, UniProt P14780); test: Gelatin degradation assay, neutrophil-derived MMP-9 trimers; assay type: biochemical; conditions: for IC25 / IC50 / IC75: MMP-9 isolated from human neutrophils, tri, gelatin degradation
T3 construct: purchased Sigma-Aldrich 444232; host or cells: human neutrophils (natural protein)
Method: as §1, §2

T3 sequence (P14780 107-707 limits assumed): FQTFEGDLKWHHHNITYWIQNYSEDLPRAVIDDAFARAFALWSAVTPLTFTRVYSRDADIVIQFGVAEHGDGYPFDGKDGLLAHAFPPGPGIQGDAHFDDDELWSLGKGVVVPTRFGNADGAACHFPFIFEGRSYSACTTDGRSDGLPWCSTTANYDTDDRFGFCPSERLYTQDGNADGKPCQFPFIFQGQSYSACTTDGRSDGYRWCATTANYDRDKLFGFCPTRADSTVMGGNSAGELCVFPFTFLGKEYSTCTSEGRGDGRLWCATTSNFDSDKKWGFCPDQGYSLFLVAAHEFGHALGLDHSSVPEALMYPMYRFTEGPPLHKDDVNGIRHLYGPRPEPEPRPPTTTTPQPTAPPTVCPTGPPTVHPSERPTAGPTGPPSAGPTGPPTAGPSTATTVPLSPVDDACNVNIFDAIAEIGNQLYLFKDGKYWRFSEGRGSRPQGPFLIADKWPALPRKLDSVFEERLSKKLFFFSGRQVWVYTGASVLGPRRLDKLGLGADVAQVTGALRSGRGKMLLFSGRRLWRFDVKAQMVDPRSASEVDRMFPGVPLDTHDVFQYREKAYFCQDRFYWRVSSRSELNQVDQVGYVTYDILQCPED
T1 sequence (P14780 107-707 limits assumed): as above

Structure (SMILES)	IC25 [1]	IC50 [1]	IC75 [1]	ex vivo stability: remaining MMP-9 inhibitory activity [2]	IC50 [3]	effect on proliferation of U-87 cells [4]	IC25 [5]	IC50 [5]	IC75 [5]	fold difference between monomeric and trimeric MMP-9 ([5]; MMP-9 purified from human neutrophils, gelatin substrate)
CC(C)[C@H](C(=O)O)N(CCNC(=O)c1ccccc1)S(=O)(=O)c1ccc(-c2ccccc2)cc1 [Compound 5]	359 nM	1410 nM	5509 nM	remained detectable up to 24h later	> 10000 nM	did not reduce proliferation	479 nM	4220 nM	17212 nM	–
CC(C)[C@H](C(=O)O)N(CCNC(=O)c1cccc(C(=O)NCCN([C@@H](C(=O)O)C(C)C)S(=O)(=O)c2ccc(-c3ccccc3)cc2)c1)S(=O)(=O)c1ccc(-c2ccccc2)cc1 [Compound 7]	28 nM	182 nM	627 nM	remained detectable up to 24h later	> 10000 nM	did not reduce proliferation	0.008 nM	0.066 nM	0.6 nM	650 fold
